Test results reported in patent US4075189A, “Hexapeptides” (Parke, Davis & Company, priority 1976, dated 1978).
Values joined by “and” are separate entries in the source; they are usually repeats but may differ in a detail not shown here. Equal entries are not always repeated. No end group written: not given here.

Tested on: LRF (luteinizing hormone releasing factor) induced luteinizing hormone (LH) release
Test: LRF antagonist activity in vitro, rat anterior pituitary cell cultures (Vale et al.)
Assay type: cell-based
Conditions: LRF alone
From the text: Hexapeptides of this invention were screened for LRF antagonist activity in vitro using rat anterior pituitary cell cultures as described by Vale et. al. [Endocrinology, 91, 562 (1972)]. The inhibition of LRF (luteinizing hormone releasing factor) induced luteinizing hormone (LH) release into the culture medium is the endpoint in this in vitro bioassay.

LRF Control: luteinizing hormone releasing factor, also referred to as luteinizing hormone releasing hormone, LH-RH; stimulus in the bioassay (QHWSYGLRPG; ends and bridges not checked; UniProt P01148 24-33, looked up)
LH Value (Molar Conc. 2.5×10^-10): 38.98 ng/mL | LH Value (Molar Conc. 3.5×10^-10): 35.60 ng/mL and 49.99 ng/mL and 41.70 ng/mL and 64.13 ng/mL | LH Value (Molar Conc. 5×10^-10): 63.61 ng/mL
